# Where a name gives a salt, the structure may show the parent alone.
# What was measured:
# [1] = Pharmacokinetics of CBD after IV administration, freely moving rats; format: in vivo
# Experimental: (§1) And dispersed in water to form a nano dispersion of about 30 nanometer. This dispersion was administered to rats by either IV or orally.
# For IV administration: Each molecule was dissolved (2% w/w) in pro-nano lipospheres (PNL) formulation (Table 3). Double-distilled water (DDW) was added to a final CBD concentration of 0.2% w/w in the nano-suspension.
# Pharmacokinetics (PK) in rats of Cannabidiol (CBD)-choline (Ch) salt following IV and oral administration: Pharmacokinetic study was performed using the freely moving rats model. For intravenously administration a dosage of 1 mg/kg was given (corrections for the salts are in Tables 4 and 5). Two groups were assigned randomly to be administered with either CBD (n=5) or Ch-CBD (n=4). Systemic blood samples (0.35 mL) were taken at 5-min pre-dose and at 5, 15 30 minutes and 1, 1.5, 2, 4, 6, and 8 hr. post dose.
# (§2) The oral formulation was administered to the animals by oral gavage with a dosage of 15 mg/kg (corrections for the salts are in Tables 4 and 5). Two groups were assigned randomly to be administered with either CBD (n=5) or Ch-CBD (n=3). Systemic blood samples (0.35 mL) were taken at 5-min pre-dose and at 0.33, 0.66, 1, 1.5, 2, 4, 6, 8 and 10 hr. post dose. To prevent dehydration, equal volumes of physiological solution were administered following each withdrawal of blood sample. Plasma was separated by centrifugation (4000 rpm, 10 min) and stored at −20° C. pending analysis. Plasma aliquots of 150 μL were spiked with 10 μL of internal standard cannabigerol (CBG; 1 μg/mL). ACN (200 μL) was added to each test tube (tubes A) and vortex-mixed for 1 min. The extraction of CBD and CBG was performed by N-hexane (3 mL) that was added to each test tube (tubes A), followed by 1 min. vortex-mixing. After centrifugation at 4000 rpm for 10 min, the n-hexane organic layer was transferred to fresh glass test tubes (tubes B) and evaporated to dryness (Vacuum Evaporation System, Labconco, Kansas City, MO). Then, tubes B were reconstituted in 80 μL of ACN: water (80:20). The resulting solution (80 μl) was injected into the HPLC-MS system. Column used: XTerra MS C18 Column 3.5 μm 2.1×100 mm column (Waters®, Milford, MA). Mobile phase: an isocratic mobile phase of 20:80 (v/v) 2 mM ammonium acetate/acetonitrile. Diluent: 20:80 (v/v) water/acetonitrile. Flow rate: 0.2 mL/min. Column temperature: 35° C.±5° C. Sample Temperature: 20° C.±5° C. The detection masses (m/z): CBG—312.2 and CBD-313.2, with negative electrospray.
# (§3) The amounts found in the plasma for the salts were adjusted with the 0.17 correction factor mentioned in Table 6, to resemble dosage of 1 mg/kg for IV administration and 15 mg/kg for oral administration.
# [2] = HPLC analysis of regenerated CBD from CBD-Choline (1:1) at pH 1.0; format: physicochemical; conditions: HCl solution pH = 1.0, 30 min, chloroform extraction
# [3] = Water solubility of CBD metal complexes; format: physicochemical
# Experimental: CBD metal complexes were tested for water solubility (Table 1).
# [4] = Oxidation stability (air bubbled through and sun light, HPLC); format: physicochemical; conditions: exposed to air bubbled through and sun light for 24 hours
# Experimental: A solution of CBD in ethanol was exposed to air bubbled through and sun light. […] When the CBD metal complexes were exposed to air bubbled through oxidation and sun light for 24 hours, no change in CBD content is found, as determined by HPLC.
# [5] = Pharmacokinetics of CBD after oral administration, freely moving rats; format: in vivo
# Experimental: as §1
# For oral administration: Each molecule was dissolved (5% w/w) in pro-nano lipospheres (PNL) formulation (Table 2). Double-distilled water (DDW) was added to a final CBD concentration of 0.5% w/w in the nano-suspension.
# as §2, §3
# [6] = Regeneration of thymol from thymol-salts in 0.1 N HCl; format: physicochemical; conditions: 0.1N HCl solution (pH = 1), 30 min, heptane extraction
# Experimental: Experimental procedure for regeneration studies: Regeneration studies were performed for 2-isopropyl-5-methylphenolate-salts in the 0.1 N HCl solution (1 pH) followed by extracting free thymol with heptane. The appropriate amount of the corresponding thymol-salt (Table 12) was brought into the 20 mL glass vial. To this, 10 mL of 0.1 N was added. The resultant mixture was kept in a shaker for 30 min. After 30 min of acid treatment, 10 mL of heptane was added to the reaction mixture. The collected organic layer was separated from the water layer and carefully dried using rotavapor followed by drying under a temperature-controlled hot oven at 35° C. for 12 h.
# [7] = PO 12 mg/kg semaglutide; for T0.5 of semaglutide: n = 3
# Experimental: All compounds are powders and each material ratio is by mass.
# Animals are anesthetized for the period of surgery. An indwelling cannula is placed in the right jugular vein of each animal for systemic blood sampling. The cannula is tunnelled beneath the skin and exteriorized at the dorsal part of the neck. After completion of the surgical procedure, the animals are transferred to individual cages to recover overnight (12-18 h). During said recovery period, food, but not water, is deprived if an oral absorption experiment is conducted. Throughout the experiments, free access to food is available 4 h post oral administration.
# Animals are randomly assigned to the different experimental groups. […] Systemic blood samples (0.36 ml) are obtained by intravenous cannula, placed in the jugular vein. In the case of oral administration, samples are taken at 5 minutes pre-dose and at different time points post dose, according to the pharmacokinetic profile (blood will be drawn no more than 10% of rat blood volume). To prevent dehydration, equal volumes of physiological solution are administered to the rats following each blood sampling. Plasma is separated by centrifugation (4000 rpm, 7 minutes, 4 °C) and stored at −20° C. pending analysis. Plasma samples were analyzed by a developed LC-MS method for Semaglutide.
# PK parameters were extracted from the data in a semi-logarithmic scale. […] It is further important to mention that the formulations were prepared by mass ratios.
# AUC0-∞^# was calculated for infinity by using the terminal slope.
# [8] = Reversibility of CBD salts to CBD on acidification; format: physicochemical; conditions: dilute HCl, pH 3; 1H NMR
# Experimental: 1M HCl solution was added dropwise to aqueous solution of CBD-Na until pH of 3 was achieved. […] The ease of reversibility is paramount to the success of this work, as original compounds may be easily reconstituted by a simple chemical process.
# For all salts, adding acidic solution such as HCl, convert back the native CBD.
# [9] = NMR
# [10] = system: various viruses; conditions: plants in polystyrene trays containing the salt; blank trays heavily infected
# Description: These trays were used for planting tomato plants contaminated with various viruses.
# [11] = octanol/water
# [12] = system: mold; experiment: Hay bale packed in coated packaging; conditions: after 2 weeks; control bale became moldy
# Description: The copper and zinc-thymol salts were incorporated in polystyrene foam, in a hydrogel during their manufacturing and in coating material of potato seeds and hay packaging material. Moreover, the thymol copper was incorporated in polyethylene sheets during melt extrusion. The salts were incorporated in these formulations while thymol could not be incorporated due to its evaporation rate and low melting point. Thymol was constantly released to air over a period of 3 weeks while protecting the hay from microbial contamination.
# In a typical experiment, fresh hay was packed with thymol coated and copper-thymol salt coated packaging. After 2 weeks, the control bale became moldy.
compound,measurement,setting,value
"C=C(C)[C@@H]1CCC(C)=C[C@H]1c1c(O)cc(CCCCC)cc1O [CBD, cannabidiol]",T0.5,"[1]; IV 1 mg/kg in PNL, n = 5",1.45 h
same,clearance,"[1]; rat, plasma, IV 1 mg/kg in PNL, n = 5",56.3 mL/min/kg
same,Vd,"[1]; rat, plasma, IV 1 mg/kg in PNL, n = 5, read-out: Volume of distribution",7.02 L/kg
same,AUC(0-inf),"[1]; rat, CBD in plasma, IV 1 mg/kg in PNL formulation suspended (X10) in water, until 8 hours, n = 5",300 ng·h/mL
same,CBD regenerat. (%),[2],100.00%
same,solubility,[3]; water,12.6 µg/mL
same,Change in CBD content,[4],decrease in CBD content
same,T0.5,"[5]; PO 15 mg/kg in PNL, n = 5",1.05 ± 0.46 h
same,AUC(0-inf),"[5]; rat, plasma, PO 15 mg/kg in PNL, calculated for infinity by the terminal slope, n = 5",846 ± 321 ng·h/mL
same,bioavailability,"[5]; rat, plasma, PO 15 mg/kg in PNL, calculated using data of CBD in PNL by IV administration, read-out: Fabs (%) (Absolute bioavailability)",18.8 ± 7.1%
same,Cmax,"[5]; rat, plasma, PO 15 mg/kg in PNL, n = 5",200 ± 79.5 ng/mL
same,AUC(0-t),"[5]; rat, CBD in plasma, PO 15 mg/kg in PNL formulation suspended (X10) in water, until 10 hours, n = 5, read-out: AUC0-10",841 ± 319 ng·h/mL
"Cc1ccc(C(C)C)c([O-])c1.[Li+] [Thymol salt Lithium, lithium 2-isopropyl-5-methylphenolate]",% of thymol regenerated,[6],63%
"Cc1ccc(C(C)C)c(O)c1 [Thymol salt Zinc (II), zinc(II) 2-isopropyl-5-methylphenolate]",% of thymol regenerated,[6]; listed as Zinc (II),59%
O=C([O-])CCCCCCCNC(=O)c1ccccc1[O-].[Na+].[Na+] [SNAC-Na],T0.5 of semaglutide,[7],2.26 ± 1.07 h
C=C(C)C1CCC(C)=CC1c1c([O-])cc(CCCCC)cc1[O-].[Na+].[Na+] (stereo not shown) [CBD-Na],Solubility in water,[3],10000 µg/mL
same,Conversion back to CBD on acidification,[8],confirmed by ^1H NMR to be CBD
C=C(C)C1CCC(C)=CC1c1c([O-])cc(CCCCC)cc1[O-].[K+].[K+] (stereo not shown) [CBD-K],Solubility in water,[3],2000 µg/mL
"O=C([O-])CCCCCCCNC(=O)c1ccccc1O.[Na+] [SNAC, Salcaprozate Sodium]",Behaviour on reducing the pH to acidic pH (1.2),[9],precipitated
"CCCC[N+](CCCC)(CCCC)CCCC [Thymol salt Tetrabutylammonium, tetrabutylammonium 2-isopropyl-5-methylphenolate]",% of thymol regenerated,[6],94%
O=C([O-])c1ccccc1.O=C([O-])c1ccccc1.[Cu+2] [copper benzoate],Infection of tomato plants,[10],did not demonstrate any infection
"Cc1ccc(C(C)C)c(O)c1 [Thymol salt Ferrous (II), ferrous (II) 2-isopropyl-5-methylphenolate]",% of thymol regenerated,[6],97%
"Cc1ccc(C(C)C)c([O-])c1.[Na+] [Thymol salt Sodium, sodium 2-isopropyl-5-methylphenolate]",% of thymol regenerated,[6],68%
O=C([O-])CCCCCCCNC(=O)c1ccccc1O.[Na+] [SNAC-Na],Semaglutide absorption compared with the SNAC formulation,[7],didn't contribute to the semaglutide absorption
C[N+](C)(C)CCO.O=C([O-])CCCCCCCNC(=O)c1ccccc1[O-].[Na+] [SNAC-CH],T0.5 of semaglutide,[7],2.62 ± 0.35 h
manganese (II) 2-isopropyl-5-methylphenolate [Thymol salt Manganese(II)],% of thymol regenerated,[6],77%
C=C(C)C1CCC(C)=CC1c1c([O-])cc(CCCCC)cc1[O-].C[N+](C)(C)CCO.C[N+](C)(C)CCO (stereo not shown) [CBD-Choline],T0.5,"[1]; IV, MS correction (0.17), PNL, n = 4",0.98 h
same,T0.5,"[1]; IV, MW adjustment (0.6), PNL, n = 4",1.07 h
same,Blood levels after IV compared with CBD,"[1]; rats, IV",comparable
same,T0.5,"[5]; PO, MS correction (0.17), n = 3",1.37 ± 0.47 h
same,T0.5,"[5]; PO, MW adjustment (0.6), n = 3",1.37 ± 0.47 h
same,Conversion back to CBD on acidification,[8],successfully regenerated
same,Log P,[11],1.71
C=C(C)C1CCC(C)=CC1c1c(O)cc(CCCCC)cc1O (stereo not shown) [CBD-Choline (1:1) salt],CBD regenerat. (%),[2],67.01%
same,CBD regenerat. (%),[2]; listed as CBD-Choline (1:1),about 67.0%
"Cc1ccc(C(C)C)c([O-])c1.[K+] [Thymol salt Potassium, potassium 2-isopropyl-5-methylphenolate]",% of thymol regenerated,[6],57%
"Cc1ccc(C(C)C)c(O)c1 [Thymol salt Silver, silver 2-isopropyl-5-methylphenolate]",% of thymol regenerated,[6]; listed as Silver,57%
"Cc1ccc(C(C)C)c(O)c1 [Thymol salt Copper (II), copper(II) 2-isopropyl-5-methylphenolate]",% of thymol regenerated,[6]; listed as Copper (II),72%
same,Mold on hay bale,[12],has not shown any mold
2Na(2-isopropyl-5-methylphenolate)4Zn [Thymol salt 2Na4Zn],% of thymol regenerated,[6],74%
